[NH3+]O.[NH3+]O.[O-]n1nnnc1-c1nnnn1[O-]
solubility (mole fraction)
Conditions | 298.15 K | 303.15 K | 308.15 K | 313.15 K | 318.15 K | 323.15 K | 328.15 K | 333.15 K
in formic acid | 0.00145 | 0.00161 | 0.0018 | 0.00201 | 0.00225 | 0.00254 | 0.00287 | 0.00325
in water | 7.96e-05 | 0.000155 | 0.00024 | 0.000317 | 0.000403 | 0.000489 | 0.00058 | 0.000665

Reference: BigSolDB 2.1
